Reference: US20260199426A1, “CYCLIC LIPOPEPTIDE ANTIBIOTIC COMPOUNDS FOR USE IN THE TREATMENT OF PROTEIN AGGREGATION DISEASE” (DEUTSCHES ZENTRUM FÜR NEURODEGENERATIVE ERKRANKUNGEN E. V., priority 2022, published 2026)
*1 amine or outer side, *2 acyl side, *3 side chain or, on linkers, in order; H or OH if unused. Where a SMILES comes first, the peptide text is derived from it. Bridges are numbered along the chain shown (N, C = ends). [ ]: non-standard residue; d: D form. The star is where a group is joined. ξ: configuration not given here. X2 = O=C(C(N[*:1])c1ccc(OC2OC(CO)C(O)C(O)C2OC2OC(CO)C(O)C(O)C2O)cc1)[*:2]; Octa(2Z,4E)dienoyl(7-Me) = CC(C)C/C=C/C=C\C(=O)*; ξPhg(3-Cl-4-OH) = NC(C(=O)O)c1ccc(O)c(Cl)c1; X1 = NC(=O)C(O[*:3])C(N[*:1])C(=O)[*:2]; Hpg = N[CH](C(=O)O)c1ccc(O)cc1; Orn = NCCC[CH](N)C(=O)O

How the values were obtained:
[1] = test system: NM region of the Sup35 prion protein (HA-epitope tagged NM) in N2a cells; format: cell-based; conditions: 500 nM NM fibrils, 24 h
2N4R Tau [2] = target: T1, 2N4R Tau (Homo sapiens, UniProt P10636); experiment: Tau pelleting assay (SDS-PAGE of soluble fraction); conditions: mole ratios 1:3 and 1:5
T1 sequence (P10636 1-441 isoform P10636-8): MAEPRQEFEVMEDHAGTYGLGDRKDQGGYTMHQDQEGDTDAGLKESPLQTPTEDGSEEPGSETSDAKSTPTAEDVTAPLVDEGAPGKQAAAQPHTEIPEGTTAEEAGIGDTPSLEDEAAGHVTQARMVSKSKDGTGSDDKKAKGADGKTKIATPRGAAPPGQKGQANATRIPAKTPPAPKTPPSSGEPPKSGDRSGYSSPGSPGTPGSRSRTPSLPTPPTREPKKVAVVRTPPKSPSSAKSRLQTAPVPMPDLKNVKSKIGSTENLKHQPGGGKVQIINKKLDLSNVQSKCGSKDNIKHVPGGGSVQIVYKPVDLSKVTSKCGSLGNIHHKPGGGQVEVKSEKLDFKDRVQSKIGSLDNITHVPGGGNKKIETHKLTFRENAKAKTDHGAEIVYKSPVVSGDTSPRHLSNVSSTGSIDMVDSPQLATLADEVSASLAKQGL

[3] = test system: spread of tau aggregates between nerve cells in PS19 mice; experiment: Spreading of tau aggregates after intracerebral injection of tau fibrils in PS19 mice; format: in vivo, mouse; conditions: in food from two months of age; tau fibril injection four weeks after start
monomeric Tau (2N4R) = monomeric Tau (2N4R) (Homo sapiens, UniProt P10636)
monomeric Tau (2N4R), sequence (P10636 1-441 isoform P10636-8): as above

[4] = test system: tau neurofibrillary tangles; experiment: Formation of tau neurofibrillary tangles in mice; format: in vivo, mouse; conditions: in feed from 3-4 weeks of age, approximately 9 months
[5] = test system: Tau-induced degeneration of Drosophila eyes (GMR-Gal4/WT Tau); experiment: Drosophila neurodegeneration model (Tau-induced eye degeneration); conditions: oral in food from larvae stage to adult stage; 15, 30, and 44 μM
[6] = target: pre-formed 2N4R Tau fibrils (Homo sapiens, UniProt P10636); experiment: Tau fibril dissolution assay (pre-formed fibrils, ThT span, TEM); conditions: mole ratios 1:0.3 and 1:1
pre-formed 2N4R Tau fibrils, sequence (P10636 1-441 isoform P10636-8): as above

[7] = target: T2, amylin (human islet amyloid polypeptide or hIAPP) (Homo sapiens, UniProt P10997); experiment: Amylin aggregation assay (ThT); format: biochemical; conditions: 5 μM hIAPP monomers, various doses, 37° C.
T2 construct: 5 μM amylin (human islet amyloid polypeptide or hIAPP) monomers
T2 sequence (P10997 34-70 limits assumed): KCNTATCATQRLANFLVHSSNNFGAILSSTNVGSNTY

2N4R Tau [8] = target: T1, 2N4R Tau; experiment: Seeded Tau aggregation assay (ThT fluorescence, TEM of the fibrils formed); conditions: Tau:Ramoplanin A2 mole ratios 1:3 and 1:5; lower Tm = faster aggregation
[9] = test system: Tau aggregation in HEK biosensor cells (TauRD^LM-GFP)
[10] = test system: 22 L scrapie prion infection of fibroblast cell clone L929 15.9 (PrP^Sc); format: cell-based
[11] = target: N-terminally acetylated alpha-synuclein (Asyn) (Homo sapiens, UniProt P37840); experiment: Seeded α-synuclein aggregation assay (ThT fluorescence, TEM); format: biochemical
Protocol: (§1) (A, B) Thioflavin-T (ThT) fluorescence curves of N-terminally acetylated alpha-synuclein (Asyn) in the absence (cross) and presence of a 3-fold excess (white circles) of compound. […] Quantitative analysis of Asyn aggregation kinetics was performed by nonlinear regression with sigmoidal fitting to determine the midpoint value (Tm) of the fluorescence curve as well as the fluorescence span. Unpaired two-tailed t-test was performed to test the null hypothesis (p≤0.0332(*), p≤0.002(**), p≤0.0002 (***), p≤0.0001 (****)). […] (C) TEM imaging analysis of the compound/Asyn mixtures. Scale bars correspond to 200 nm.
as §1, with “ThT” for “Thioflavin-T (ThT)”, “circles or triangles)” for “circles)”
(A) ThT fluorescence curves of N-terminally acetylated alpha-synuclein (Asyn) in the absence (cross) and presence of a 3-fold excess (white circles) of compound. […] Quantitative analysis of Asyn aggregation kinetics was performed by nonlinear regression with sigmoidal fitting to determine the midpoint value (Tm) of the fluorescence curve as well as the fluorescence span.
Asyn protein stock solutions were prepared in 50 mM HEPES at pH 7.4 with 100 mM NaCl. Stocks of compounds were prepared in the same buffer (500 μM) or as 10 mM compound in DMSO. […] The microplate was likewise subjected to the incubation and fluorescence measurement program used in in vitro assay 1. After about 2-4 days of incubation, ThT fluorescence emission reached the maximal value and the Asyn fibril-containing mixture was collected as “fibril seed” mixture for subsequent Asyn aggregation experiments.

TGFBI peptide = TGFBI peptide aggregation assay (ThT, TEM); conditions: compound/TGFBI mixture
monomeric 2N4R Tau = monomeric 2N4R Tau (Homo sapiens, UniProt P10636); experiment: 1D 1H-NMR titration of Ramoplanin A2 with unlabeled 2N4R Tau (binding epitopes); conditions: 200 μM Ramoplanin A2 : 30 μM Tau, 37° C.
monomeric 2N4R Tau, sequence (P10636 1-441 isoform P10636-8): as the sequence (P10636 1-441 isoform P10636-8) above

[12] = test system: NM region of the Sup35 prion protein (NM-GFP) in HEK cells; format: cell-based, human

CC(C)C/C=C/C=C\C(=O)NC(CC(N)=O)C(=O)NC1C(=O)NC(c2ccc(O)cc2)C(=O)NC(CCCN)C(=O)NC(C(C)O)C(=O)NC(c2ccc(O)cc2)C(=O)NC(c2ccc(O)cc2)C(=O)NC(C(C)O)C(=O)NC(Cc2ccccc2)C(=O)NC(CCCN)C(=O)NC(c2ccc(OC3OC(CO)C(O)C(O)C3OC3OC(CO)C(O)C(O)C3O)cc2)C(=O)NC(C(C)O)C(=O)NC(c2ccc(O)cc2)C(=O)NCC(=O)NC(CC(C)C)C(=O)NC(C)C(=O)NC(c2ccc(O)c(Cl)c2)C(=O)OC1C(N)=O (stereo not shown) [Ramoplanin A2] ({Octa(2Z,4E)dienoyl(7-Me)}-N[X1][Hpg][Orn]T[Hpg][Hpg]TF[Orn][X2]T[Hpg]GLA[ξPhg(3-Cl-4-OH)]; ester 2-C; configuration not given here)
percent of cells with aggregates of the prion protein [1]: reduced with increasing concentration
amount of soluble Tau (SDS-PAGE) (2N4R Tau [2]): increased
spread of tau aggregates between nerve cells and formation of new tau fibrils [3]: hinders the spread of tau aggregates between nerve cells and the formation of new tau fibrils
binding to monomeric Tau (CSPs above ~0.0025 ppm with signal broadening I/I0<1) (monomeric Tau (2N4R); 18 μM 15N Tau, mole ratios 1:0.3 to 1:30): binding of Ramoplanin A2 to specific regions/residues in the monomeric form of Tau
conformational state of Tau (chemical shift dispersion along 1H dimension) (monomeric Tau (2N4R); 10-fold excess of Ramoplanin A2): Tau remains disordered
formation of tau neurofibrillary tangles [4]: inhibits the formation of tau neurofibrillary tangles
percent degeneration of Drosophila eyes [5]: lowers the percent degeneration of Drosophila eyes
dissolution of Tau fibrils [6]: not dissolved
in vitro aggregation of amylin (final ThT fluorescence, t=50 h) [7]: inhibit the in vitro aggregation of amylin
midpoint values (Tm) of the fluorescence curves (2N4R Tau [8]): accelerates Tau fibrillization
Tau aggregate formation ([9]; induced by Tau^P301L fibrils, 0.25 μM to 40 μM, 48 hours, with or without lipofectamine): decreased aggregate formation
aggregation of Tau ([9]; induced by brain homogenate of PS19 mice, 0.25 μM to 26.5 μM, 24 hours, lipofectamine): inhibits the aggregation of Tau in HEK biosensor cells
inhibition of seeded Tau aggregation ([9]; induced by cell lysate containing Tau aggregates, 0.25 μM to 40 μM, 22 h, lipofectamine): showed inhibition of seeded Tau aggregation
inhibition of seeded Tau aggregation, comparison among the tested compounds ([9]; induced by cell lysate, 0.25 μM to 40 μM, 22 h, lipofectamine): strongest dose-dependent inhibition of seeded Tau aggregation
pathogenic prion protein PrP^Sc (proteinase K resistant, Western blot) [10]: reduction
total PrP (Western blot) ([10]; 3 μM, 9 d): reduction
prion infection in cellular model ([10]; 3 μM, 9 d, 1% 22 L scrapie brain homogenate): prevents prion infection in cellular model
in vitro aggregation of alpha-synuclein (ThT fluorescence) ([11]; 3-fold excess of compound, 25 μM Asyn monomers, 1% (v/v) fibril seeds, 37° C.): inhibit the in vitro aggregation
Asyn fibril morphology (TEM) ([11]; compound/Asyn mixtures): shorter fibrils
TGFBI fibril morphology (TEM) (TGFBI peptide): shorter fibrils
involvement of the peptide backbone of Ramoplanin A2 in binding (proton CSPs) (monomeric 2N4R Tau): involved in binding to monomeric Tau
percent of cells with aggregates of the prion protein [12]: reduced with increasing concentration
